What was measured:
LP-1 cells [1] = experiment: Sterols accumulated in cells, HPLC and GC/MS; format: cell-based, human; settings: LP1, 48 h incubation
Procedure: (§1) The organic layer was reduced to dryness under a flux of argon and the residue was resuspended in ethanol. Sterols were analyzed by liquid chromatography and gas-liquid chromatography as described before. Neutral lipids and sphingomyelin analyses were done according to previously published procedures.

RPMI 8226 cells [2] = experiment: Sterols accumulated in cells, HPLC and GC/MS; format: cell-based, human; settings: RPMI 8226, 48 h incubation
Procedure: as §1

RPMI 8226 cells [3] = experiment: Electron microscopy for MLBs, AVs and UVs; format: cell-based, human; settings: 48 h, 10 μM drug (PBPE 40 μM)
LP-1 cells [4] = experiment: Electron microscopy for MLBs, AVs and UVs; format: cell-based, human; settings: 48 h, 10 μM drug (PBPE 40 μM)
LP-1 cells [5] = experiment: Presence of 5,6-EC in cells by GC/MS; format: cell-based, human; settings: 48 h, 10 μM drug (PBPE 40 μM)
Procedure: as §1

RPMI 8226 cells [6] = experiment: Presence of 5,6-EC in cells by GC/MS; format: cell-based, human; settings: 48 h, 10 μM drug (PBPE 40 μM)
Procedure: as §1

HMCLs = experiment: Free sterol accumulation in HMCLs; format: cell-based, human
Procedure: as §1

RPMI 8226 and LP-1 cells [7] = experiment: Degradation of long-lived proteins; format: cell-based, human; settings: both cell lines, 10 μM OHT, 40 μM PBPE
Procedure: The degradation of long-lived proteins was measured as described previously. Briefly, HMCLs were incubated for 24 h at 37°C with 0.2 μCi/ml of L-[[14]C]valine in complete medium. Cells were then washed resuspended in medium with no nutrients but supplemented with 10 mM valine. After the first h of incubation, the chase medium was replaced by complete medium and the incubation continued for 5 h. […] Radiolabeled proteins present in the chase medium as well as in cells were precipitated with 10% trichloroacetic acid (v/v) at 4°C. Radioactivity was measured by scintillation counting. The rate of protein degradation was calculated from the ratio of radioactivity in the medium to that of precipitated cell fraction.

RPMI 8226 and LP-1 cells [8] = experiment: Intracellular free sterol, TG and SM contents; format: cell-based, human; settings: 5 µM OHT, 20 µM PBPE or 5 µM RU 58668 for three days
Procedure: as §1

Karpas 620 = test system: Karpas 620; design: method as in earlier work; settings: cited from earlier work
LP-1 = test system: LP-1; design: method as in earlier work; settings: cited from earlier work
NCI-H929 = test system: NCI-H929; design: method as in earlier work; settings: cited from earlier work
OPM-2 = test system: OPM-2; design: method as in earlier work; settings: cited from earlier work
RPMI 8226 = test system: RPMI 8226; design: method as in earlier work; settings: cited from earlier work
U266 = test system: U266; design: method as in earlier work; settings: cited from earlier work
MM tumors = test system: MM tumors; design: method as in PMID 20033476, PMID 16753295; settings: xenografted mice bearing MM tumors; cited from earlier work
AEBS = AEBS (Homo sapiens, UniProt Q15125+Q9UBM7); experiment: Binding to the AEBS in HMCLs; design: endogenous in cells; host or cells: RPMI 8226 and LP-1 human multiple myeloma cell lines
Sequence of AEBS (Q15125 whole entry): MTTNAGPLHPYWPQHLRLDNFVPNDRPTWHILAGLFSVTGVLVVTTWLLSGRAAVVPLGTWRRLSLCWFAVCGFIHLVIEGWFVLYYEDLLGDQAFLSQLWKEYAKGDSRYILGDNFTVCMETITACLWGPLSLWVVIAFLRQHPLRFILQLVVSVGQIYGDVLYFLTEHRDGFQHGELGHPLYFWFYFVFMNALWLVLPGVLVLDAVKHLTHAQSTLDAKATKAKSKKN
Sequence of AEBS (Q9UBM7 whole entry): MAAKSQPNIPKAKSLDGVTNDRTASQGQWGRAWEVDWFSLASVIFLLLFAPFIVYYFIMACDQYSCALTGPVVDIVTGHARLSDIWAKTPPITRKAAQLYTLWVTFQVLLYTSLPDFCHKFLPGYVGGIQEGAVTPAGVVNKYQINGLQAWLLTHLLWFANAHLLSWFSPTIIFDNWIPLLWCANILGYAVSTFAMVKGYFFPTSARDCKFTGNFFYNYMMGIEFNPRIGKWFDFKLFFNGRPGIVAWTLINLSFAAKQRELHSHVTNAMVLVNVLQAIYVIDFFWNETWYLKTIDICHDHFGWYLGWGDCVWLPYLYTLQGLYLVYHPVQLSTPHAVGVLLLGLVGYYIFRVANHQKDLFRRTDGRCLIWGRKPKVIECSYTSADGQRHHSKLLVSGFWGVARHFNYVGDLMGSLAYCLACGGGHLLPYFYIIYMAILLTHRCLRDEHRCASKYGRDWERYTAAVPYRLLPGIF

ChEH = ChEH (Homo sapiens, UniProt Q15125+Q9UBM7); experiment: ChEH activity in HMCLs (TLC); format: cell-based; design: endogenous in cells; host or cells: RPMI 8226 and LP-1 human multiple myeloma cell lines; settings: OHT, Tam, RU 58668 10 μM, PBPE 40 μM
Sequence of ChEH (Q15125 whole entry): as the sequence (Q15125 whole entry) above
Sequence of ChEH (Q9UBM7 whole entry): as the sequence (Q9UBM7 whole entry) above
Description: Cells were then pelleted and extracted with chloroform/methanol (2/1). The organic layer was reduced to dryness under a flux of argon and the residue was resuspended in EtOH. Samples were applied to thin layer chromatography (TLC) plates and developed using ethyl acetate as previously described. The radioactive metabolites were visualized by autoradiography using Kodak Biomax MS films.

[9] = RPMI 8226, presence of 500 μM Vit E

For `CC/C(=C(\c1ccc(O)cc1)c1ccc(OCCN(C)C)cc1)c1ccccc1` [OHT], the Desmosterol (LP-1 cells [1]) was 44.4 percent by the weight of total sterol, the Zymostenol (LP-1 cells [1]) was 1.9 percent by the weight of total sterol and the Zymostenol (RPMI 8226 cells [2]) was 1.8 percent by the weight of total sterol. For the same compound, the AV (RPMI 8226 cells [3]; RPMI 8226, absence of Vit E) was “+ + (The sign + means that 80 % cells were positive and contained at least 5 vesicles)”, the MLB (RPMI 8226 cells [3]; RPMI 8226, absence of Vit E) was “+ + (The sign + means that 80 % cells were positive and contained at least 5 vesicles)” and the UV (RPMI 8226 cells [3]; RPMI 8226, absence of Vit E) was “+ (The sign + means that 80 % cells were positive and contained at least 5 vesicles)”. For the same compound, the AV (RPMI 8226 cells [3]; [9]) was “+ + (The sign + means that 80 % cells were positive and contained at least 5 vesicles)”, the MLB (RPMI 8226 cells [3]; [9]) was “+ + (The sign + means that 80 % cells were positive and contained at least 5 vesicles)” and the UV (RPMI 8226 cells [3]; [9]) was “− (otherwise they were considered as negative (-))”. The AV (LP-1 cells [4]; LP-1, absence of Vit E) was “+ + (The sign + means that 80 % cells were positive and contained at least 5 vesicles)”, the MLB (LP-1 cells [4]; LP-1, absence of Vit E) was “+ + (The sign + means that 80 % cells were positive and contained at least 5 vesicles)” and the UV (LP-1 cells [4]; LP-1, absence of Vit E) was “+ (The sign + means that 80 % cells were positive and contained at least 5 vesicles)”. For the same compound, the AV (LP-1 cells [4]; LP-1, presence of 500 μM Vit E) was “+ + (The sign + means that 80 % cells were positive and contained at least 5 vesicles)”, the MLB (LP-1 cells [4]; LP-1, presence of 500 μM Vit E) was “+ + (The sign + means that 80 % cells were positive and contained at least 5 vesicles)” and the UV (LP-1 cells [4]; LP-1, presence of 500 μM Vit E) was “− (otherwise they were considered as negative (-))”. The “5,6-EC” value (LP-1 cells [5]; LP-1, absence of Vit E) was “+”, the “5,6-EC” value (LP-1 cells [5]; LP-1, presence of 500 μM Vit E) was “−” and the “5,6-EC” value (RPMI 8226 cells [6]; RPMI 8226, absence of Vit E) was “+”. The “5,6-EC” value (RPMI 8226 cells [6]; [9]) was “−”, the free sterol accumulated (HMCLs) was “accumulation of desmosterol” and the “rate of long-lived protein degradation” value (RPMI 8226 and LP-1 cells [7]) was “stimulated”. The “intracellular free sterol, triacylglycerol (TG) and sphingomyelin (SM) contents” value (RPMI 8226 and LP-1 cells [8]) was “increases”, the “SERM and SERDs effects on MM cell lines” value (Karpas 620) was “No response” and the “SERM and SERDs effects on MM cell lines” value (LP-1) was “G1-arrest and apoptosis”. The “SERM and SERDs effects on MM cell lines” value (NCI-H929) was “G1-arrest and apoptosis”, the “SERM and SERDs effects on MM cell lines” value (OPM-2) was “No response” and the “SERM and SERDs effects on MM cell lines” value (RPMI 8226) was “G1-arrest and apoptosis”. For the same compound, the “SERM and SERDs effects on MM cell lines” value (U266) was “G1-arrest and apoptosis”, the tumor growth (MM tumors) was “block tumor growth” and the “affinity for the AEBS” value (AEBS) was “high affinity”. The “ChEH activity, conversion of 5,6-EC into CT by TLC” value (ChEH) was “ChEH activity was inhibited”.

Source: paper PMC3757248, “Antiestrogen-binding site ligands induce autophagy in myeloma cells that proceeds through alteration of cholesterol metabolism” (Oncotarget, 2013)
